As usually defined, the IC50 is the point on the concentration scale where inhibition reaches its midpoint. The low end stands for higher potency, the high end for lower potency.

The assay has as its target T1, Bifunctional epoxide hydrolase 2 (Homo sapiens, UniProt P34913).
T1 sequence (P34913 whole entry): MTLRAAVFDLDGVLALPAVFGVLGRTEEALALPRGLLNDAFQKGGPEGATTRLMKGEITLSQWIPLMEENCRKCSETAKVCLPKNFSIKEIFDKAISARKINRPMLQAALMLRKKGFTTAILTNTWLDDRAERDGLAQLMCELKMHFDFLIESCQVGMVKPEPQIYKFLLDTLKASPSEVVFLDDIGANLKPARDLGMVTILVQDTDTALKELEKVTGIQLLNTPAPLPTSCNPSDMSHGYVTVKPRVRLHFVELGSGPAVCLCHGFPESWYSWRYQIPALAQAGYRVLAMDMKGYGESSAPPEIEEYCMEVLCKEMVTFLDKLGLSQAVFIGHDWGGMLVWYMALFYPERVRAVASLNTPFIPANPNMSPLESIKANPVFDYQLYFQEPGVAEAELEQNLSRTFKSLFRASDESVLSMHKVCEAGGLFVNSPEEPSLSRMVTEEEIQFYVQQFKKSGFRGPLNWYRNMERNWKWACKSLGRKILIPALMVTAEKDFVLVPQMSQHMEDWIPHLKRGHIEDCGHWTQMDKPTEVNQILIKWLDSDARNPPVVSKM
Put plainly: sEH inhibitor concentration-response potency, dose response, biochemical, human sEH, fluorescence, Infinite200 (AID 1026).
On to `O=C(CCCOc1ccc(Cl)cc1Cl)NN=CC1CCCCC1`, for which the IC50 was determined as 24.4 nM.

In turn, `Cc1ccccc1NC(=S)NCCC(c1ccccc1)c1ccccc1` [1-(3,3-diphenylpropyl)-3-(2-methylphenyl)thiourea] yielded an IC50 of more than 10000 nM.

Take `Cc1ccc(NC(=O)NC2CCCCC2)cc1Cl` [1-(3-chloranyl-4-methyl-phenyl)-3-cyclohexyl-urea]: the IC50 is 70.5 nM.

`COc1ccc(S(=O)(=O)N2C3CCC2CC(NC(=O)NC2CCCCC2)C3)cc1` (stereo not drawn) [1-Cyclohexyl-3-[8-(4-methoxy-benzenesulfonyl)-8-aza-bicyclo[3.2.1]oct-3-yl]-urea] showed an IC50 of 39.4 nM.

`CC(C)(C)c1ccc(S(=O)(=O)N2CCC(c3nc4cc(Cl)ccc4[nH]3)CC2)cc1` [2-[1-(4-tert-butylphenyl)sulfonylpiperidin-4-yl]-6-chloranyl-1H-benzimidazole] returned an IC50 of more than 10000 nM.

Consider `CCOC(=O)C(O)(c1ccc(NC(=O)NC2CCCCC2)cc1)C(F)(F)F` (stereo not drawn) [2-[4-(cyclohexylcarbamoylamino)phenyl]-3,3,3-trifluoro-2-hydroxy-propionic acid ethyl ester], for which the IC50 is 121 nM.

`COc1ccc(Cn2ccc(=O)c(Cc3c(Cl)cccc3Cl)c2C)cc1` [3-(2,6-dichlorobenzyl)-1-(4-methoxybenzyl)-2-methyl-4(1H)-pyridinone] came in with an IC50 of more than 10000 nM.

The compound `Cc1cc(Cl)c(OCCCNCc2ccccc2)c(Br)c1` [3-(2-bromanyl-6-chloranyl-4-methyl-phenoxy)-N-(phenylmethyl)propan-1-amine;ethanedioic acid] gave an IC50 of more than 10000 nM.

`CCN(CC)S(=O)(=O)c1ccc(N=C2NS(=O)(=O)c3ccccc32)cc1` [4-(1,1-Dioxo-1H-1lambda*6*-benzo[d]isothiazol-3-ylamino)-N,N-diethyl-benzenesulfonamide] registered an IC50 of more than 10000 nM.

As to `COC(=O)c1ccc(S(=O)(=O)N2C3CCC2CC(NC(=O)NC2CCCCC2)C3)cc1` (stereo not drawn) [4-[3-(3-Cyclohexyl-ureido)-8-aza-bicyclo[3.2.1]octane-8-sulfonyl]-benzoic acid methyl ester], the IC50 was 8.9 nM.

For `c1ccc(CCN=C2NCCCS2)cc1` [5,6-dihydro-4H-1,3-thiazin-2-yl(phenethyl)amine], the IC50 is more than 10000 nM.

As to `CCOC(=O)c1sc(NC(=O)Nc2ccc(Cl)cc2)cc1C` [5-[(4-chlorophenyl)carbamoylamino]-3-methyl-thiophene-2-carboxylic acid ethyl ester], 63.1 nM corresponded to half-maximal inhibition (IC50).

The compound `CCOC(=O)c1sc(NC(=O)c2ccc(Cl)s2)cc1C` [5-[(5-chlorothiophene-2-carbonyl)amino]-3-methyl-thiophene-2-carboxylic acid ethyl ester] yielded an IC50 of 82.8 nM.

`O=C1Nc2ccc(S(=O)(=O)N3CCOCC3)c3cccc1c23` [6-(4-morpholinylsulfonyl)-1H-benzo[cd]indol-2-one]: the IC50 was more than 10000 nM.

`CC(C)CN(C#N)c1nc(N2CCOCC2)nc(N2CCOCC2)n1` [(4,6-dimorpholin-4-yl-1,3,5-triazin-2-yl)-(2-methylpropyl)cyanamide]: the IC50 is more than 10000 nM.

As to `Cc1cc(NS(=O)(=O)c2ccc(Nc3nc(-c4sc(NC(=O)c5ccccc5)nc4C)cs3)cc2)no1` [MLS000523248], the midpoint of inhibition, the IC50, lay at 19.8 nM.

In turn, `Clc1ccc(CON=CNc2ncnc3sccc23)cc1` [N-[(4-chlorophenyl)methoxy]-N'-thieno[2,3-d]pyrimidin-4-yl-methanimidamide] gave an IC50 of more than 10000 nM.

`CCOC(=O)CSc1ccc(-c2nc3cc(C)c(C)cc3[nH]2)cn1` [SMR000122535] registered an IC50 of more than 10000 nM.

The values are drawn from BindingDB's records for doi:10.7270/Q2DZ06QW (Columbia University Molecular Screening Center, 2008).
